Data taken from US20150366890A1, “COMPOSITIONS AND METHODS FOR TREATING FUNGAL INFECTIONS” (TRUSTEES OF BOSTON UNIVERSITY, priority 2013, published 2015).

Tests used:
Type in all cases: cell-based
C. albicans [1] = test: ROS formation by HPF fluorescence (flow cytometry); conditions: wildtype C. albicans, SDC, after 1.5 hours of treatment (CAS 0.5 μg/ml)
Protocol: (§1) The formation of ROS following AF treatment in yeast was measured using the dye 3′-(p-hydroxyphenyl) fluorescein (HPF), which is preferentially oxidized by intracellular hydroxyl radicals into a fluorescent product (Kohanski et al., 2007). Exponentially growing wildtype S. cerevisiae and C. albicans were treated in synthetic dextrose complete (SDC) medium with the minimum concentration of fungicide required to achieve at least a 90% reduction in colony forming units (CFU) after three hours of exposure. As a positive control, cells were also treated with H2O2, a potent inducer of hydroxyl radical formation (Perrone et al., 2008).
(§2) Overnight yeast cultures were diluted into the indicated media and grown to an OD600 of 0.2, at which point the AFs were added. Colony forming units (CFU) were measured by plating six serial dilutions onto YPD agar plates. Cells treated with MCZ were washed before serial dilution to stop growth inhibition associated with high concentrations of MCZ. CFU were counted after three days of incubation on agar plates. When indicated, thiourea (Fluka) was added 30 min prior to the addition of AFs. HPF (10 μM) (Invitrogen) and Mito Tracker (1 μM) (Invitrogen) dyes were added to PBS-washed cells at the indicated time points and incubated for 30 min prior to flow cytometry measurements, which were taken on the FACSCalibur (Becton-Dickinson). All experiments described in this section were conducted in 0.5 ml of SDC in 24-well plates incubated at 900 rpm and 37° C. for C. albicans and 30° C. and 300 rpm for S. cerevisiae. TUNEL assays were conducted as previously described (Ribeiro et al., 2006) and are described in detail in the TUNEL section of the Experimental Procedures.

C. albicans [2] = test: Metabolomic profiling of intracellular metabolites (Metabolon)
Protocol: The results described herein link AF treatment to distinct changes in intracellular metabolic activity as part of an induced common killing mechanism. To further explore the role of metabolism in AF-induced cellular death, the effect of AF treatment on the intracellular metabolome of C. albicans was measured. To do so, a platform for metabolite detection and relative quantification from Metabolon Inc. (Durham, USA) (Evans et al., 2009) was utilized. Exponentially growing C. albicans cells were treated with AFs and samples collected for metabolomic analysis after 1.5 hours of treatment, a time point when it was expected that at least 90% of cells contributing to the metabolite pool would be irreversibly committed to the death pathway (FIGS. 7A-7D).
C. albicans cells were lysed and assayed by Metabolon Inc. (Durham, USA) as previously described (Shakoury-Elizeh et al., 2010). ATP and AMP were extracted as previously described (Walther et al., 2010) and analyzed by HPLC. This procedure is more fully described elsewhere herein.
C. albicans cells were incubated in 100 ml of SDC in 250 ml flasks at 37° C. and 300 rpm. Cells were exposed to AFs at an OD600 of 0.2, and cellular pellets from 100 ml of media were collected after 1.5 h of treatment. Cells were lysed and assayed by Metabolon Inc. (Durham, USA) as previously described (Evans et al., 2009; Shakoury-Elizeh et al., 2010).

[3] = tested on: S. cerevisiae wildtype and deletion strains; conditions: S. cerevisiae, 3 hours of drug exposure
S. cerevisiae = test: ROS formation by HPF fluorescence (flow cytometry); conditions: wildtype S. cerevisiae, SDC, after 1.5 hours of treatment
Protocol: as §1, §2

C. albicans [4] = test: TUNEL assay of DNA strand breaks (flow cytometry); conditions: after 2 hours of treatment
Protocol: The terminal deoxynucleotidyl transferase dUTP nick-end labeling (TUNEL) assay was used to quantify the relative abundance of DSBs in C. albicans cells treated with AFs and H2O2. The TUNEL reagent fluorescently labels both double- and single-strand DNA breaks (Ribeiro et al., 2006).
DNA strand breaks were fluorescently labeled with TUNEL reagent from the “In Situ Cell Death Detection Kit”, Roche (Mannheim, Germany). After 2 hours of treatment 5 ml of OD 0.2 cells were fixed with 3.7% formaldehyde for 30 min at room temperature, and then washed with digestion buffer consisting of 10 mM Mes pH 6.5 and 1 M sorbitol. Cell were digested for 45 min at 30° C. with 2 U of Yeast Lytic Enzyme, MP Biomedicals, (Irvine, Calif.) in 50 μl of digestion buffer. Cells were then washed in PBS with 1 M sorbitol and resuspended in permeabilization solution consisting of 0.1% Triton X-100 and 0.1% sodium citrate and 1 M sorbitol for 10 min at room temperature. Cell were again washed in PBS with 1 M sorbitol and labeled for 60 min with 10 μl of TUNEL reaction mixture. Cells were then again washed in PBS with 1 M sorbitol and resuspended in sheath fluid. Mean relative florescence was measured by flow cytometry on the FACSCalibur (Becton-Dickinson).

For CC[C@H](C)C[C@H](C)CCCCCCCCC(=O)N[C@H]1C[C@@H](O)[C@@H](NCCN)NC(=O)[C@@H]2[C@@H](O)CCN2C(=O)[C@H]([C@H](O)CCN)NC(=O)[C@H]([C@H](O)[C@@H](O)c2ccc(O)cc2)NC(=O)[C@@H]2C[C@@H](O)CN2C(=O)[C@H]([C@@H](C)O)NC1=O [caspofungin], the “HPF fluorescence (formation of ROS)” value (C. albicans [1]) was “elevated ROS levels”, the “intracellular sugars (fructose, mannose, trehalose) abundance vs control” value (C. albicans [2]; 1.5 hours of treatment) was “elevation of sugars” and the “fermentative waste products (2,3-butanediol and glycerol)” value (C. albicans [2]; 1.5 hours of treatment, vs untreated) was “reduction in fermentative byproducts”. For the same compound, the “metabolic changes compared with those induced by AMB, MCZ and CIC” value (C. albicans [2]; CAS 0.5 μg/ml, 1.5 hours) was “similar”.

With OO [H2O2] the “susceptibility of rad50 and rad52 knockouts vs wildtype” value [3] was “considerably more susceptible”, the “HPF fluorescence (formation of ROS)” value (C. albicans [1]) was “dramatic induction of HPF fluorescence” and the “HPF fluorescence (formation of ROS)” value (S. cerevisiae) was “dramatic induction of HPF fluorescence”. For the same compound, the “TUNEL relative fluorescence (DNA breaks)” value (C. albicans [4]) was “elevated relative fluorescence”.
